Where a name gives a salt, the structure may show the parent alone. Read-outs that look alike come from different tables or passages of the source.
How the values were obtained:
Adrenergic α1A = test: competitive radioligand binding, Adrenergic α1A; settings: compound concentration of 1 μM
Method: (§1) Profiles of pharmacological activity of thieno-pyrrolo[3,2-c]pyridines of the general formula 1. Biological activity test of compounds of the general formula 1 was carried out in the setting of competitive radioligand binding [I. Okun, S. Tkachenko, A. Khvat, et al., Current Alzheimer Research, 7(2), 97-112 (2010)], using a wide range of therapeutic targets including G-protein coupled receptors (GPCR), ion channels and neuromediator transporters. The tested activity was determined by quantitative measurement of radio-labelled ligand displacement by tested compounds of the general formula 1 at their concentration of 1 μM.

Dopaminergic D4.2 = target: T1, Dopaminergic D4.2 (Homo sapiens, UniProt P21917, DEL265-296); test: competitive radioligand binding, Dopaminergic D4.2; settings: compound concentration of 1 μM; read-out: radio-labelled ligand displacement, Dopaminergic D4.2
T1 sequence (P21917 with tags, fused parts or gaps DEL265-296): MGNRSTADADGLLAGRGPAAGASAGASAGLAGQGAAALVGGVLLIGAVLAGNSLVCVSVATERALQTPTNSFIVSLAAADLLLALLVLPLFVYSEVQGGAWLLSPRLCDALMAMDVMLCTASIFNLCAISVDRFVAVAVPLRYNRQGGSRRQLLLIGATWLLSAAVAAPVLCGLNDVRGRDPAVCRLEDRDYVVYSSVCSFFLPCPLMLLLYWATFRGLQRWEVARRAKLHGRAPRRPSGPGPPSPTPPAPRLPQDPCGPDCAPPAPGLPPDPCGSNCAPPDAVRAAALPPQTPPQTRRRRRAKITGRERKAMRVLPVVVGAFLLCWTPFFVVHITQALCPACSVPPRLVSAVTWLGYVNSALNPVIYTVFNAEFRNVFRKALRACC
Method: as §1

Histaminergic H2 = Histaminergic H2 (Homo sapiens, UniProt P25021); test: competitive radioligand binding, Histaminergic H2; settings: compound concentration of 1 μM; read-out: radio-labelled ligand displacement, Histaminergic H2
Sequence of Histaminergic H2 (P25021 whole entry): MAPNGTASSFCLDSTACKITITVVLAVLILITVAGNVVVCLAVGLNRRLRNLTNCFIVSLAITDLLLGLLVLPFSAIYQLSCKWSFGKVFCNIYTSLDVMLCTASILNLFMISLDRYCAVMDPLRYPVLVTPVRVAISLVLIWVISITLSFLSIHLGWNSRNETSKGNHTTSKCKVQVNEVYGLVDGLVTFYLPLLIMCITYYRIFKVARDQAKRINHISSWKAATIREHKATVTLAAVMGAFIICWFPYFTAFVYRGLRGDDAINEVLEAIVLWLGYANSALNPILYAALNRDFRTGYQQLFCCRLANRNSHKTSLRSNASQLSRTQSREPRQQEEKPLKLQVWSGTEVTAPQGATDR
Method: as §1

Serotoninergic 5-HT2B = Serotoninergic 5-HT2B (Homo sapiens, UniProt P41595); test: competitive radioligand binding, Serotoninergic 5-HT2B; settings: read-out: radio-labelled ligand displacement, Serotoninergic 5-HT2B
Sequence of Serotoninergic 5-HT2B (P41595 whole entry): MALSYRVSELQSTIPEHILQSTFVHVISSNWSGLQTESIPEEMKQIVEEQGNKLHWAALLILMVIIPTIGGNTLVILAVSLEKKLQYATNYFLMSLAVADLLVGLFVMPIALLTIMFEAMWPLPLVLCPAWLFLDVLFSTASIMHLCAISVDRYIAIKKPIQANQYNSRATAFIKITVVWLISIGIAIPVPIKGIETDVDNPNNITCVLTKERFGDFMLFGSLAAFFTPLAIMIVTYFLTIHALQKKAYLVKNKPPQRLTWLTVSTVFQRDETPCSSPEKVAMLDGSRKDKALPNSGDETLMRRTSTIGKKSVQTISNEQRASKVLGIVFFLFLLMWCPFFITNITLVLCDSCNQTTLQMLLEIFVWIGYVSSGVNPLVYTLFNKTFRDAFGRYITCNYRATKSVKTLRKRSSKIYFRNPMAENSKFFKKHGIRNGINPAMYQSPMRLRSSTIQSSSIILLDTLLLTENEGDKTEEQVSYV
Method: as §1

Serotoninergic 5-HT2C = target: T2, Serotoninergic 5-HT2C (Homo sapiens, UniProt P28335); test: competitive radioligand binding, Serotoninergic 5-HT2C; settings: read-out: radio-labelled ligand displacement, Serotoninergic 5-HT2C
T2 sequence (P28335 33-458): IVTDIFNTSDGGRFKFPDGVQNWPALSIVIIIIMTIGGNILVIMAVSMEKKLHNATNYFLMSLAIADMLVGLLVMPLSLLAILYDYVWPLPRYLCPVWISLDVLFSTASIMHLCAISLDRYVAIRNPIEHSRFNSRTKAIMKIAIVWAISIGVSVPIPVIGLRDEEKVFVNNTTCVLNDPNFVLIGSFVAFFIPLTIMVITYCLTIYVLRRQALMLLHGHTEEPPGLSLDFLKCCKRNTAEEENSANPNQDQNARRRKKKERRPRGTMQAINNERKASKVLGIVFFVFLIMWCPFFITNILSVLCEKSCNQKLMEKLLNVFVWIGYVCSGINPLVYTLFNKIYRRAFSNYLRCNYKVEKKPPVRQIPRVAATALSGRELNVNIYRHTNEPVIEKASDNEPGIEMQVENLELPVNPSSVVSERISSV
Method: as §1

[1] = tested on: Therapeutic targets (Adrenergic, Dopaminergic, Histaminergic, Serotoninergic); test: Profiles of pharmacological activity in competitive radioligand binding (whole panel); settings: 1 μM, grades not defined
Method: as §1

male mice of BALB/c line [2] = test: Passive Avoidance of mice in Shuttle Chamber (memory disturbed by Scopolamine); assay type: in vivo; settings: intraperitoneally 30 minutes before training, in combination with Scopolamine
Method: Nootropic action (enhancement of memory disturbed by Scopolamine) of compounds of the general formula 1 in test “Passive Avoidance of mice in Shuttle Chamber”. Shuttle chamber (Ugo Basile, Italy) consisted of two sections was used. […] Sections were connected through a hole which could be overlapped by vertical door. The floor was made of transverse metal bars on which DC current impulses could be fed. Experiments were carried out in aged male mice of BALB/c line weighing 20-24 g. On the first day of experiment 30 minutes before training mice were injected intraperitoneally with physiological solution, (0.3 mg/kg) or Scopolamine in combination with compound 3.6(1).HCl, or Scopolamine in combination with compound 2.5(1).HCl. Each group consisted of 8 animals. Animals were placed in light section, and latent period of the first entry into the dark chamber was registered. Then the vertical door was closed and the animal was punished by 0.6 mA DC current for 3 seconds. After that the animal was taken back to its home cage. In 22-24 hours the same animal was placed again in light section of shuttle chamber and latent period of its first entry into dark section, total time of its stay in light section and number of entries into dark section was registered. Each monitoring lasted for 5 minutes. […]

male mice of BALB/c line [3] = test: Porsolt's Forced Swim Test; assay type: in vivo; settings: after 4 days injections in dose 1 mg/kg, last 5 minutes of the test
Method: Antidepressant action of antagonists of the general formula 1 in Porsolt's Forced Swim Test. Test apparatus represented a plastic vessel filled with water up to height of 18 cm at 20-22° C. Experiments were carried out in aged male mice of BALB/c line weighing 20-24 g.
Mice were placed in water and for 15 minutes duration of immobile hanging in water so called behavioural despaire, which is considered to be a measure of depressively-like state, was registered. The last 5 minutes of the test were used for analysis. Automated computerized detection of motion with videosystem and Any-maze program were used in the test.

male mice of BALB/c line [4] = test: Mice behavior in tail suspension test; assay type: in vivo; settings: after 4 days injections in dose of 0.1 mg/kg, 6 minutes
Method: Antidepressant action of compounds of the general formula 1 in test “Mice behavior in tail suspension test”. Experiments were carried out in aged male mice of BALB/c line weighing 20-24 g. Mice were suspended by tail with scotch tape on holder over horizontal surface at height of about 40 cm, and for 6 minutes of total duration of complete immobility episodes which is considered to be a measure of depressively-like state was registered. Automated computerized detection of motion with videosystem and Any-maze program were used in test.

Mice of SHK line = test: Prepulse inhibition of startle response in mice (Apomorphine); settings: 1 mg/kg, subcutaneously 60 minutes before the test

Cc1cc2c(s1)c1c(n2-c2cccc(F)c2)CCN(C)C1 [2.4(3)•HCl, 2,7-dimethyl-4-(3-fluorophenyl)-5,6,7,8-tetrahydro-4H-thieno[2′,3′:4,5]pyrrolo[3,2-c]pyridine]
radio-labelled ligand displacement, Adrenergic α1A (Adrenergic α1A): 17%
inhibition at 1 µM (Dopaminergic D4.2): 3%
inhibition at 1 µM (Histaminergic H2): 29%
inhibition at 1 µM (Serotoninergic 5-HT2B; compound concentration of 1 μM): 39%
inhibition at 1 µM (Serotoninergic 5-HT2C; compound concentration of 1 μM): 33%
grade of the activity profile (poor / satisfactory / good) [1]: poor

Cc1cc2c(s1)c1c(n2Cc2ccccc2)CCN(C)C1.Cl [2.5(1)•HCl, 4-Benzyl-2,7-dimethyl-5,6,7,8-tetrahydro-4H-thieno[2′,3′:4,5]pyrrolo[3,2-c]pyridine hydrochloride]
radio-labelled ligand displacement, Adrenergic α1A (Adrenergic α1A): 42%
inhibition at 1 µM (Dopaminergic D4.2): -3%
inhibition at 1 µM (Histaminergic H2): 44%
inhibition at 1 µM (Serotoninergic 5-HT2B): 91%
inhibition at 1 µM (Serotoninergic 5-HT2C): 84%
Nootropic action: training disturbed by Scopolamine (male mice of BALB/c line [2]): improve training disturbed by Scopolamine
Antidepressant action: duration of immobile hanging in water (male mice of BALB/c line [3]): decrease this index
Antidepressant action: duration of complete immobility (male mice of BALB/c line [4]): decrease the duration of complete immobility of mice
Antipsychotic activity: disturbance of prepulse inhibition of startle caused by Apomorphine (Mice of SHK line): prevented disturbance of prepulse inhibition of startle caused by Apomorphine

Cc1ccc(Cn2c3c(c4sc(Cl)cc42)C(C)N(C)C(C)C3)cn1 (stereo not shown) [2.5(4)•HCl, 4-(6-methylpyridin-3-ylmethyl)-6,7,8-trimethyl-2-chloro-5,6,7,8-tetrahydro-4H-thieno[2′,3′:4,5]pyrrolo[3,2-c]pyridine]
radio-labelled ligand displacement, Adrenergic α1A (Adrenergic α1A): 51%
inhibition at 1 µM (Dopaminergic D4.2): -1%
inhibition at 1 µM (Histaminergic H2): 83%
inhibition at 1 µM (Serotoninergic 5-HT2B; compound concentration of 1 μM): 78%
inhibition at 1 µM (Serotoninergic 5-HT2C; compound concentration of 1 μM): 91%
grade of the activity profile (poor / satisfactory / good) [1]: satisfactory

Cc1cc2c(s1)c1c(n2CCc2ccccc2)CCN(C)C1.Cl [2.6(1)•HCl, 2,7-Dimethyl-4-(2-phenylethyl)-5,6,7,8-tetrahydro-4H-thieno[2′,3′:4,5]pyrrolo[3,2-c]pyridine hydrochloride]
radio-labelled ligand displacement, Adrenergic α1A (Adrenergic α1A): 83%
inhibition at 1 µM (Dopaminergic D4.2): 14%
inhibition at 1 µM (Histaminergic H2): 56%
inhibition at 1 µM (Serotoninergic 5-HT2B): 79%
inhibition at 1 µM (Serotoninergic 5-HT2C): 89%

CC1Cc2c(c3sc(Cl)cc3n2C#Cc2cccc(F)c2)C(C)N1C (stereo not shown) [2.10(3)•HCl, 6,7,8-trimethyl-4-(3-fluorophenyl)ethynyl-2-chloro-5,6,7,8-tetrahydro-4H-thieno[2′,3′:4,5]pyrrolo[3,2-c]pyridine]
radio-labelled ligand displacement, Adrenergic α1A (Adrenergic α1A): 21%
inhibition at 1 µM (Dopaminergic D4.2): 4%
inhibition at 1 µM (Histaminergic H2): 33%
inhibition at 1 µM (Serotoninergic 5-HT2B; compound concentration of 1 μM): 39%
inhibition at 1 µM (Serotoninergic 5-HT2C; compound concentration of 1 μM): 31%
grade of the activity profile (poor / satisfactory / good) [1]: poor

Cc1ccc(CCCn2c3c(c4scc(Cl)c42)CN(C)CC3)cn1 [2.12(5)•HCl, 7-methyl-4-[3-(6-methylpyridin-3-yl)propyl]-3-chloro-5,6,7,8-tetrahydro-4H-thieno[2′,3′:4,5]pyrrolo[3,2-c]pyridine]
radio-labelled ligand displacement, Adrenergic α1A (Adrenergic α1A): 98%
inhibition at 1 µM (Dopaminergic D4.2): 69%
inhibition at 1 µM (Histaminergic H2): 96%
inhibition at 1 µM (Serotoninergic 5-HT2B; compound concentration of 1 μM): 95%
inhibition at 1 µM (Serotoninergic 5-HT2C; compound concentration of 1 μM): 99%
grade of the activity profile (poor / satisfactory / good) [1]: good

Cc1cc2c3c(n(Cc4ccccc4)c2s1)CCN(C)C3.Cl [3.5(1)•HCl, 8-Benzyl-2,5-dimethyl-5,6,7,8-tetrahydro-4H-thieno[3′,2′:4,5]pyrrolo[3,2-c]pyridine hydrochloride]
radio-labelled ligand displacement, Adrenergic α1A (Adrenergic α1A): 77%
inhibition at 1 µM (Dopaminergic D4.2): -5%
inhibition at 1 µM (Histaminergic H2): 91%
inhibition at 1 µM (Serotoninergic 5-HT2B): 90%
inhibition at 1 µM (Serotoninergic 5-HT2C): 97%

Cc1cc2c3c(n(CCc4ccccc4)c2s1)CCN(C)C3.Cl [3.6(1)•HCl, 2,5-Dimethyl-8-(2-phenylethyl)-5,6,7,8-tetrahydro-4H-thieno[3′,2′:4,5]pyrrolo[3,2-c]pyridine hydrochloride]
radio-labelled ligand displacement, Adrenergic α1A (Adrenergic α1A): 97%
inhibition at 1 µM (Dopaminergic D4.2): 71%
inhibition at 1 µM (Histaminergic H2): 96%
inhibition at 1 µM (Serotoninergic 5-HT2B): 92%
inhibition at 1 µM (Serotoninergic 5-HT2C): 99%
Nootropic action: training disturbed by Scopolamine (male mice of BALB/c line [2]): improve training disturbed by Scopolamine
Antidepressant action: duration of immobile hanging in water (male mice of BALB/c line [3]): decrease this index
Antidepressant action: duration of complete immobility (male mice of BALB/c line [4]): decrease the duration of complete immobility of mice
Antipsychotic activity: disturbance of prepulse inhibition of startle caused by Apomorphine (Mice of SHK line): prevented disturbance of prepulse inhibition of startle caused by Apomorphine

Cc1cc2c3c(n(Cc4ccccc4)c2s1)CC1CCC3N1C (stereo not shown) [3.13(1)•HCl, 9-benzyl-2,10-dimethyl-4,5,6,7,8,9-hexahydro-4,7-epiminocyclohepta[b]thieno[3,2-d]pyrrole]
radio-labelled ligand displacement, Adrenergic α1A (Adrenergic α1A): 61%
inhibition at 1 µM (Dopaminergic D4.2): 31%
inhibition at 1 µM (Histaminergic H2): 70%
inhibition at 1 µM (Serotoninergic 5-HT2B): 90%
inhibition at 1 µM (Serotoninergic 5-HT2C): 81%
grade of the activity profile (poor / satisfactory / good) [1]: satisfactory

— patent publication US20130267551A1, “SUBSTITUTED HYDROGENATED THIENO-PYRROLO[3,2-C]PYRIDINE, LIGANDS, A PHARMACEUTICAL COMPOSITION AND A METHOD FOR USING THE ABOVE” (ALLA CHEM, LLC, priority 2010, published 2013)
